From paper PMC11061149, “Protein mimetic 2D FAST rescues alpha synuclein aggregation mediated early and post disease Parkinson’s phenotypes” (Nature Communications, 2024)

Assays:
αS PMCA samples = biological target: T1, αS PMCA samples (Homo sapiens, UniProt P37840); assay: Proteinase K digestion of PMCA samples; type: biochemical; details: cycle three to cycle five, in the presence of NS132
T1 construct: made in house; host or cells: E. coli BL21(DE3)
Experimental: A Protease K (PK) solution at 50 μg/mL (IBI Scientific, Dubuque, IA) in digestion buffer (10 mM Tris, pH 8.0, 2 mM CaCl2) was diluted (0.1 eq.) into 30 μL of PMCA solution (with or without NS132) and incubated for 30 min at 37 °C. Subsequently, the samples were diluted (1:1, v/v) in SDS Protein Gel Loading Dye 2× (Quality Biological, Gaithersburg, MD) and loaded on Mini-PROTEAN TGX Stain-Free Protein Gel (BioRad, Hercules, CA). The gel was stained using the Fairbanks staining method and imaged using ChemiDoc MP (BioRad, Hercules, CA).

[1] = tested on: HEK293 cells stably expressing αS-A53T-YFP; assay: ProteoStat dye assay, ligand pre-treatment, αS fibers templated intracellular aggregation; type: cell-based, human; details: ligand 10 µM for 16 h, washed, then 5 µM αS fibers for 24 h
Experimental: We further tested NS163 against intracellular αS aggregation using same HEK293 cells (express αS-A53T-YFP)[23],[24],[50]. In this assay, we added NS163 (10 µM) to the HEK cells and incubated the cells for 16 h, washed the cells and treated with the preformed fibers of αS (5 µM monomer) and incubated for an additional 24 h. The ProteoStat dye-based intensity of HEK cells treated with αS fibers was ~4 fold higher than the control (no fibers) (Supplementary Fig. 19). NS163 was a very potent antagonist as it was able to reduce the intracellular inclusions by 80% at 10 µM, measured using the ProteoStat dye-based assay (Supplementary Fig. 19). Under matched conditions, 10 µM NS132 was able to reduce the intracellular inclusions by 57% (Supplementary Fig. 19). The higher antagonist activity of NS163 than NS132 is likely due to the better cell permeability of the former. […] It is important to point out that our potent ligands (NS163 and NS132) were able to inhibit αS preformed fibers templated aggregation of both monomeric WT αS and A53T αS mutant. It has been shown that the WT αS fibers templated aggregation of WT αS and its mutants is predominantly dependent on the interaction of the fibers with the N-terminus of the monomeric WT αS and its mutants[62],[68],[69]. […]

proteinase K (PK) resistance of PMCA samples, in words (αS PMCA samples): completely degraded
SMILES: Cc1ccc(NC(=O)c2ccc(NC(=O)c3ccc([N+](=O)[O-])c(NCCc4c[nH]c5ccccc45)n3)c(NCC3CCCCC3)n2)c(OCC(=O)O)n1 [NS132]
reduction of intracellular inclusions (ProteoStat) [1]: 57%
